Data from patent US5610176A, “Tachykinin (NK1) receptor antagonists” (Warner-Lambert Company, priority 1995, dated 1997).
Counter-ions that a name gives are not always drawn. Like-named read-outs stand apart in the source and are kept apart here.

Columns and labels:
tachykinin NK1 receptor = molecular target: T1, tachykinin NK1 receptor (Homo sapiens, UniProt P25103); assay: NK1 binding in human IM9 lymphoma cells, displacement of [125I]Bolton Hunter Substance-P
T1 construct: tachykinin NK1 receptor sites in human IM9 lymphoma cells; endogenous in cells; host or cells: human IM9 lymphoma cells

NK1 receptor [1] = molecular target: T2, NK1 receptor (Cavia porcellus, UniProt P30547); assay: NK1 antagonist activity in an in vitro NK1 preparation (guinea pig ileum), antagonism of substance-P methylester; assay type: cell-based; settings: vs substance-P methylester
T2 construct: Guinea Pig Ileum; from tissue; host or cells: guinea pig ileum
Text: Therefore, it is expected to be useful in the therapeutic disorders when the attenuation of the NK1 receptor response is the appropriate form of intervention.

NK1 receptor [2] = molecular target: T2, NK1 receptor; assay: Inhibition of SPOMe-induced plasma protein extravasation in the guinea pig bladder; assay type: in vivo
Text: They antagonize the ability of a NK1 receptor selective agonist (SPOMe) to induce plasma protein extravasation in the guinea pig bladder. The protocol is similar to that described by Eglezos, et al., Eur. J. Pharmacol., 209: 277-279 (1991).

T2 sequence (P30547 whole entry): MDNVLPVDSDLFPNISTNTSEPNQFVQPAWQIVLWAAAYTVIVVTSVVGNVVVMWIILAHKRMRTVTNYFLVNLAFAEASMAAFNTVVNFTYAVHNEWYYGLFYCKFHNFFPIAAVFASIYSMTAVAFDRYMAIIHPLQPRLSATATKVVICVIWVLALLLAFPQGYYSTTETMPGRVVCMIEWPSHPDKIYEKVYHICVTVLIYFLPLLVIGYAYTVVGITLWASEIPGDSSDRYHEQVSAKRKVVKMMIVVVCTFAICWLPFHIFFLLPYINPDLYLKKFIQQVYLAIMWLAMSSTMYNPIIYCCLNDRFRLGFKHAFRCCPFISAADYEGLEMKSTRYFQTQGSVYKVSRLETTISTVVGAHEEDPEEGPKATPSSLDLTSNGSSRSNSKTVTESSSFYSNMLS
T1 sequence (P25103 whole entry): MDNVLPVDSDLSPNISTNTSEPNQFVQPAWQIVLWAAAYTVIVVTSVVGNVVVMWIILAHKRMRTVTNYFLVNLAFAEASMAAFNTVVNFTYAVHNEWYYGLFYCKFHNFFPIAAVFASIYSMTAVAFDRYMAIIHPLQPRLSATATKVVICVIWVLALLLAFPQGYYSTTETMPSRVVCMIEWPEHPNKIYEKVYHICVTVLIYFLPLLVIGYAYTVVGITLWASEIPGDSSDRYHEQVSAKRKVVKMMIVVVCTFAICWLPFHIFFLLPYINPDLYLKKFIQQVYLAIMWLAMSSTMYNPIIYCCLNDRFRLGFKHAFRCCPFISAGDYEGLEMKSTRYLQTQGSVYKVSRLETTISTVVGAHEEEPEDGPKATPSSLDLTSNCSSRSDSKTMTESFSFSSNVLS

Compound | IC50 (tachykinin NK1 receptor) [nM] | Kb (NK1 receptor [1]) [nM] | ED50 (NK1 receptor [2]; IV, read-out: ID50 (IV)) [mg/kg] | ED50 (NK1 receptor [2]; PO, read-out: ID50 (PO)) [mg/kg]
C[C@](Cc1c[nH]c2ccccc12)(NC(=O)OCc1cc(F)ccc1F)C(=O)N[C@@H](CO)c1ccccc1 [Example 17, Carbamic acid, [2-[(2-hydroxy-1-phenylethyl)amino]-1-(1H-indol-3-ylmethyl)-1-methyl-2-oxoethyl]-, (2,5-difluorophenyl)methyl ester, [R-(R*,R*)]] | 3.9 | 9.3 |  | 
C[C@](Cc1c[nH]c2ccccc12)(NC(=O)OCc1ccccc1)C(=O)N[C@@H](CO)c1ccccc1 [Example 15, Carbamic acid, [2-[(2-hydroxy-1-phenylethyl)amino]-1-(1H-indol-3-ylmethyl)-1-methyl-2-oxoethyl]-, phenylmethyl ester, [R-(R* R*)]-] | 58 |  |  | 
CN(C)CC(=O)NC[C@H](NC(=O)[C@@](C)(Cc1c[nH]c2ccccc12)NC(=O)OCc1cc2ccccc2o1)c1ccccc1 [Example 10, Carbamic acid, [2-[[(2-[[(dimethylamino)acetyl]amino]-1-phenylethyl]amino]-1-(1H-indol-3-ylmethyl)-1-methyl-2-oxoethyl]-, 2-benzofuranylmethyl ester, monohydrochloride, [R-(R*,R*)]-] | 84 |  |  | 
C[C@](Cc1c[nH]c2ccccc12)(NC(=O)OCc1cc2ccccc2o1)C(=O)N[C@@H](CO)c1ccccc1 [Example 6, Carbamic acid, [2-[(2-hydroxy-1-phenylethyl)amino]-1-(1H-indol-3-ylmethyl)-1-methyl-2-oxoethyl]-, 2-benzofuranylmethyl ester, [R-(R*,R*)]-] | 1.2 | 1.3 | 0.16 | 30
CC(C)C[C@H](N)C(=O)OC[C@H](NC(=O)[C@@](C)(Cc1c[nH]c2ccccc12)NC(=O)OCc1cc2ccccc2o1)c1ccccc1 [Example 12, L-Leucine, 2-[[2-[[(2-benzofuranylmethoxy)carbonyl]amino]-3-(1H-indol-3-yl)-2-methyl-1-oxopropyl]amino]-2-phenylethyl ester, [R-(R*,R*)]-] | 16 | 22 |  | 
C[C@](Cc1c[nH]c2ccccc12)(NC(=O)OCc1ccccc1F)C(=O)N[C@@H](CO)c1ccccc1 [Example 16, Carbamic acid, [2-[(2-hydroxy-1-phenylethyl)amino]-1-(1H-indol-3-ylmethyl)-1-methyl-2-oxoethyl]-, (2-fluorophenyl)methyl ester, [R-(R*,R*)]-] | 3.3 | 10.6 |  | 
C[C@](Cc1c[nH]c2ccccc12)(NC(=O)OCc1cc2ccccc2o1)C(=O)N[C@@H](CN)c1ccccc1 [Example 8, Carbamic acid, [2-[(2-amino-1-phenylethyl)amino]-1-(1H-indol-3-ylmethyl)-1-methyl-2-oxoethyl]-, 2-benzofuranylmethyl ester [R-(R*,R*)]-] | 13 | 16 |  | 
C[C@](Cc1c[nH]c2ccccc12)(NC(=O)OCc1cc2ccccc2s1)C(=O)N[C@@H](CO)c1ccccc1 [Example 18, Carbamic acid, [2-[(2-hydroxy-1-phenylethyl)amino]-1-(1H-indol-3-ylmethyl)-1-methyl-2-oxoethyl]-, benzo[b]thien-2-ylmethyl ester, [R-(R*,R*)]-] | 9 | 6.3 |  | 
CN(C)CC(=O)OC[C@H](NC(=O)[C@@](C)(Cc1c[nH]c2ccccc12)NC(=O)OCc1cc2ccccc2o1)c1ccccc1 [Example 9, Glycine, N,N-dimethyl-, 2-[[2-[[(2-benzofuranylmethoxy)carbonyl]amino]-3-(1H-indol-3-yl)-2-methyl-1-oxopropyl]amino]-2-phenylethyl ester, monohydrochloride, [R-(R*,R*)]-] | 12 | 6.2 | 0.16 | 4.4
